The source of these data is patent US10421774B2 (priority 2016, dated 2019).

Holding throughout (experiment): microbe, parasite or virus in culture
Common to all, as to assay type: cell-based, HIV-1

Assay [1] relates to NLRepRlucP373S recombinant wild type (WT) virus. To be noted: Human immunodeficiency virus 1, MT2, read-out: WT EC50. A digest of the protocol:
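Multiple-cycle assay: luciferase-normalized NL4-3-derived NLRepRlucP373S (Renilla luciferase in place of nef) infects MT-2 cells, 10,000 cells/well, with 3-fold compound dilutions at 1% DMSO, 4-5 days, 37 °C. EC50 and EC90 fitted by median effect equation against Renilla luminescence, with residual signal under 3 μM NFV as background.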

Assay [2] has as its system A364V site directed mutant virus. To be noted: Human immunodeficiency virus 1, MT2, read-out: A364V EC50. A digest of the protocol: (§1)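 Virus yield quantified by Renilla luciferase after 4–5 day culture at 37°C of MT-2 cells (10,000/well) with 3-fold serially diluted compound at 1% final DMSO. Reporter viruses were NL4-3 P373S derivatives bearing Gag A364V or V370A/ΔT371, inputs matched on luciferase endpoint.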

For assay [3], the system named is gag V370A/ΔT371 virus. To be noted: Human immunodeficiency virus 1, MT2, read-out: V370A/ΔT371 EC50. A digest of the protocol:
as §1

Assay [4] relates to T332S/V362I/Pr R41G virus. To be noted: Human immunodeficiency virus 1, MT2, read-out: T332S/V362I/pr41G EC50. In outline:
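Multiple-cycle susceptibility: MT-2 cells, 10,000 per well, exposed to 3-fold compound dilutions at 1% DMSO after infection with luciferase-normalized inoculum. Virus: NL4-3-derived Renilla reporter (Gag P373S) with Gag T332S/V362I and protease R41G. Readout Renilla luciferase after 4–5 days, 37 °C.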

Take `C=C(C)[C@@H]1CC[C@]2(NCCC3(O)CCS(=O)(=O)CC3)CC[C@]3(C)[C@H](CC[C@@H]4[C@@]5(C)CC=C(C6=CCC(COc7ccccn7)(C(=O)O)CC6)C(C)(C)[C@@H]5CC[C@]43C)[C@@H]12` (stereo partly drawn) [Example 33, 4-((1R,3aS,5aR,5bR,7aR,11aS,11bR,13aR,13bR)-3a-((2-(4-hydroxy-1,1-dioxidotetrahydro-2H-thiopyran-4-yl)ethyl)amino)-5a,5b,8,8,11a-pentamethyl-1-(prop-1-en-2-yl)-2,3,3a,4,5,5a,5b,6,7,7a,8,11,11a,11b,12,13,13a,13b-octadecahydro-1H-cyclopenta[a]chrysen-9-yl)-1-((pyridin-2-yloxy)methyl)cyclohex-3-ene-1-carboxylic acid]: the EC50 in assay [1] was 5 nM; in assay [2], 16 nM; in assay [3], below 50 nM; in assay [4], below 50 nM.

For `C=C(C)[C@@H]1CC[C@]2(NCCN3CCS(=O)(=O)CC3)CC[C@]3(C)[C@H](CC[C@@H]4[C@@]5(C)CC=C(C6=CCC(COc7ccccn7)(C(=O)O)CC6)C(C)(C)[C@@H]5CC[C@]43C)[C@@H]12` (stereo partly shown) [Example 1], the EC50 turned out to be 3 nM in assay [1], 11 nM in assay [2], 17 nM in assay [3] and 14 nM in assay [4].

As to `C=C(C)[C@@H]1CC[C@]2(NCCN3CCS(=O)(=O)CC3)CC[C@]3(C)[C@H](CC[C@@H]4[C@@]5(C)CC=C(C6=CCC(CCOc7cc(Cl)ccn7)(C(=O)O)CC6)C(C)(C)[C@@H]5CC[C@]43C)[C@@H]12` (stereo partly drawn) [Example A34, 1-(2-((4-chloropyridin-2-yl)oxy)ethyl)-4-((1R,3aS,5aR,5bR,7aR,11aS,11bR,13aR,13bR)-3a-((2-(1,1-dioxidothiomorpholino)ethyl)amino)-5a,5b,8,8,11a-pentamethyl-1-(prop-1-en-2-yl)-2,3,3a,4,5,5a,5b,6,7,7a,8,11,11a,11b,12,13,13a,13b-octadecahydro-1H-cyclopenta[a]chrysen-9-yl)cyclohex-3-ene-1-carboxylic acid], the EC50 in assay [1] is 2 nM; in assay [2] it was 64 nM; in assay [3] it was above 50 nM; in assay [4], 96 nM.

Regarding `C=C(C)[C@@H]1CC[C@]2(NCCN3CCS(=O)(=O)CC3)CC[C@]3(C)[C@H](CC[C@@H]4[C@@]5(C)CC=C(C6=CCC(CCOc7ncccc7Cl)(C(=O)O)CC6)C(C)(C)[C@@H]5CC[C@]43C)[C@@H]12` (stereo partly drawn) [Example A29, 1-(2-((3-chloropyridin-2-yl)oxy)ethyl)-4-((1R,3aS,5aR,5bR,7aR,11aS,11bR,13aR,13bR)-3a-((2-(1,1-dioxidothiomorpholino)ethyl)amino)-5a,5b,8,8,11a-pentamethyl-1-(prop-1-en-2-yl)-2,3,3a,4,5,5a,5b,6,7,7a,8,11,11a,11b,12,13,13a,13b-octadecahydro-1H-cyclopenta[a]chrysen-9-yl)cyclohex-3-ene-1-carboxylic acid], the EC50 in assay [1] turned out to be 5 nM; in assay [2], 4 nM; in assay [3], 3 nM; in assay [4], 3 nM.

Regarding `C=C(C)[C@@H]1CC[C@]2(NCCN3CCS(=O)(=O)CC3)CC[C@]3(C)[C@H](CC[C@@H]4[C@@]5(C)CC=C(C6=CCC(CCOc7cc(C#N)ccn7)(C(=O)O)CC6)C(C)(C)[C@@H]5CC[C@]43C)[C@@H]12` (stereo partly drawn) [Example A24, 1-(2-((4-cyanopyridin-2-yl)oxy)ethyl)-4-((1R,3aS,5aR,5bR,7aR,11aS,11bR,13aR,13bR)-3a-((2-(1,1-dioxidothiomorpholino)ethyl)amino)-5a,5b,8,8,11a-pentamethyl-1-(prop-1-en-2-yl)-2,3,3a,4,5,5a,5b,6,7,7a,8,11,11a,11b,12,13,13a,13b-octadecahydro-1H-cyclopenta[a]chrysen-9-yl)cyclohex-3-ene-1-carboxylic acid], the EC50 was 1 nM in assay [1], 7 nM in assay [2], 3000 nM in assay [3] and 3000 nM in assay [4].

With `C=C(C)[C@@H]1CC[C@]2(NCCN3CCS(=O)(=O)CC3)CC[C@]3(C)[C@H](CC[C@@H]4[C@@]5(C)CC=C(C6=CC[C@@](COc7cnccn7)(C(=O)O)CC6)C(C)(C)[C@@H]5CC[C@]43C)[C@@H]12` [Example 32, (S)-4-((1R,3aS,5aR,5bR,7aR,11aS,11bR,13aR,13bR)-3a-((2-(1,1-dioxidothiomorpholino)ethyl)amino)-5a,5b,8,8,11a-pentamethyl-1-(prop-1-en-2-yl)-2,3,3a,4,5,5a,5b,6,7,7a,8,11,11a,11b,12,13,13a,13b-octadecahydro-1H-cyclopentatalchrysen-9-yl)-1-((pyrazin-2-yloxy)methyl)cyclohex-3-ene-1-carboxylic acid], the EC50 in assay [1], in assay [2], in assay [3] and in assay [4] was below 50 nM in each case.

Take `C=C(C)[C@@H]1CC[C@]2(NCCN3CCS(=O)(=O)CC3)CC[C@]3(C)[C@H](CC[C@@H]4[C@@]5(C)CC=C(C6=CCC(COc7nsc(=O)[nH]7)(C(=O)O)CC6)C(C)(C)[C@@H]5CC[C@]43C)[C@@H]12` (stereo partly drawn) [Example 14, 4-((1R,3aS,5aR,5bR,7aR,11aS,11bR,13aR,13bR)-3a-((2-(1,1-dioxidothiomorpholino)ethyl)amino)-5a,5b,8,8,11a-pentamethyl-1-(prop-1-en-2-yl)-2,3,3a,4,5,5a,5b,6,7,7a,8,11,11a,11 b,12,13,13a,13b-octadecahydro-1H-cyclopenta[a]chrysen-9-yl)-1-(((5-oxo-4,5-dihydro-1,2,4-thiadiazol-3-yl)oxy)methyl)cyclohex-3-ene-1-carboxylic acid]: the EC50 is 27 nM in assay [1], above 50 nM in assay [2], above 50 nM in assay [3] and above 50 nM in assay [4].

For `C=C(C)[C@@H]1CC[C@]2(NCCN3CCS(=O)(=O)CC3)CC[C@]3(C)[C@H](CC[C@@H]4[C@@]5(C)CC=C(C6=CC[C@](COc7ncccc7C#N)(C(=O)O)CC6)C(C)(C)[C@@H]5CC[C@]43C)[C@@H]12` [Example 23, (R)-1-(((3-cyanopyridin-2-yl)oxy)methyl)-4-((1R,3aS,5aR,5bR,7aR,11aS,11bR,13aR,13bR)-3a-((2-(1,1-dioxidothiomorpholino)ethyl)amino)-5a,5b,8,8,11a-pentamethyl-1-(prop-1-en-2-yl)-2,3,3a,4,5,5a,5b,6,7,7a,8,11,11a,11b,12,13,13a,13b-octadecahydro-1H-cyclopenta[a]chrysen-9-yl)cyclohex-3-ene-1-carboxylic acid], the EC50 in assay [1] is 2 nM; in assay [2], above 50 nM; in assay [3], below 50 nM; in assay [4], 6 nM.

For the compound `C=C(C)[C@@H]1CC[C@]2(NCCN3CCS(=O)(=O)CC3)CC[C@]3(C)[C@H](CC[C@@H]4[C@@]5(C)CC=C(C6=CCC(COc7cccnn7)(C(=O)O)CC6)C(C)(C)[C@@H]5CC[C@]43C)[C@@H]12` (stereo partly drawn) [Example 19, 4-((1R,3aS,5aR,5bR,7aR,11aS,11bR,13aR,13bR)-3a-((2-(1,1-dioxidothiomorpholino)ethyl)amino)-5a,5b,8,8,11a-pentamethyl-1-(prop-1-en-2-yl)-2,3,3a,4,5,5a,5b,6,7,7a,8,11,11a,11 b,12,13,13a,13b-octadecahydro-1H-cyclopenta[a]chrysen-9-yl)-1-((pyridazin-3-yloxy)methyl)cyclohex-3-ene-1-carboxylic acid], the EC50 in assay [1] was 3 nM; in assay [2] it was 36 nM; in assay [3], 47 nM; in assay [4] it was 47 nM.

In the case of `C=C(C)[C@@H]1CC[C@]2(NCC[C@]3(O)CC[C@H](S(C)(=O)=O)CC3)CC[C@]3(C)[C@H](CC[C@@H]4[C@@]5(C)CC=C(C6=CC[C@](COc7ncccc7C#N)(C(=O)O)CC6)C(C)(C)[C@@H]5CC[C@]43C)[C@@H]12` [Example A6, (R)-1-(((3-cyanopyridin-2-yl)oxy)methyl)-4-((1R,3aS,5aR,5bR,7aR,11aS,11bR,13aR,13bR)-3a-((2-((1r,4S)-1-hydroxy-4-(methylsulfonyl)cyclohexyl)ethyl)amino)-5a,5b,8,8,11a-pentamethyl-1-(prop-1-en-2-yl)-2,3,3a,4,5,5a,5b,6,7,7a,8,11,11a,11b,12,13,13a,13b-octadecahydro-1H-cyclopenta[a]chrysen-9-yl)cyclohex-3-enecarboxylic acid], the EC50 was determined as 2 nM in assay [1], 5 nM in assay [2], 8 nM in assay [3] and 8 nM in assay [4].
